Target: T1, Coagulation factor XII (Homo sapiens, UniProt P00748)
T1 sequence (P00748 whole entry): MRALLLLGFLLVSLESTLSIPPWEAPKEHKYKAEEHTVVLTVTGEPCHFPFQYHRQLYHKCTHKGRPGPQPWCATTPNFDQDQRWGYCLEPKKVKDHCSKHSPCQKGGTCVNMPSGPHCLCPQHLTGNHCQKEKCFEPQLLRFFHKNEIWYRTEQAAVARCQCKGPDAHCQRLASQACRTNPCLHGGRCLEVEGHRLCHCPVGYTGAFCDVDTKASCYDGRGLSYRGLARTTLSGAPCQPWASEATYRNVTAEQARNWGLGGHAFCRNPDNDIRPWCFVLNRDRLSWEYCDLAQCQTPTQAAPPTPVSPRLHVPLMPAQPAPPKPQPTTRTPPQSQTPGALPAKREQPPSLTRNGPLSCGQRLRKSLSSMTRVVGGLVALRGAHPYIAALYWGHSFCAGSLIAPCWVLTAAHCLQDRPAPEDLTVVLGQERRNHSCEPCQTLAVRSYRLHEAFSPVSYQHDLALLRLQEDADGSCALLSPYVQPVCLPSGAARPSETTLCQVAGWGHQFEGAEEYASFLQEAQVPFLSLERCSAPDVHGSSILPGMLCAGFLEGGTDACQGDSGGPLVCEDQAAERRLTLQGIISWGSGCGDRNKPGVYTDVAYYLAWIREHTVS
Experiment: Factor XIIa assay: Factor XIIa activity determinations were made in 50 mM HEPES buffer containing 150 mM NaCl, 5 mM CaCl2, and 0.1% PEG 8000 (polyethylene glycol; JT Baker or Fisher Scientific) at pH 7.4. Determinations were made using purified human Factor XIIa at a final concentration of […] (Sekisui Diagnostics) and the synthetic substrate, n-Acetyl-Lys-Pro-Arg-AFC, TFA salt (Sigma # C6608) at a concentration of 100 μM.

IC50 [nM]	Compound
5	C[N+](C)(C)CCCC[C@@H](NC1CCCCC1)C(=O)N1CC[C@@H](NC(=O)N2CCC3(CC2)CC3)[C@@H](C(=O)NCc2ccccc2)C1
82.9	O=C(NCc1cccs1)[C@H]1CN(C(=O)C(CC2CCNCC2)NC2CCCCC2)CC[C@H]1NC(=O)N1CCC2(CC1)CC2 (some centres not stated)

From ChEMBL document CHEMBL5728478, “Factor XIIa inhibitors” (2021)
